From a melting point compilation (Tetko et al.; mined from patent text by program, amines drawn as free bases though some values may be those of a salt)
Residues, ends and D or L forms follow the SMILES beside them. *: point of attachment. Cbz = O=C(OCc1ccccc1)*

melting point [°C]	SMILES
138 to 142	O=C(c1ccoc1)c1ccc(O)c(Cl)c1Cl
87.2	CC1(C)COC(c2ccc(CC34CCCCN3C(=O)N(c3cc(Cl)cc(Cl)c3)C4=O)cc2)=N1 (centres undefined)
114 to 116	Cc1ccc2nc(-c3ccccc3)c(-c3ccccc3)nc2c1
167 to 169	O=C(Nc1ccc(O)cc1)C(=O)N1CCC(Cc2ccccc2)CC1
97 to 100	Cn1nc(C(C)(C)c2ccc(Cl)cc2)nc1-c1c(F)cccc1Cl
177 to 180	COC(=O)c1ccccc1S(=O)(=O)NC(=O)Nc1nc(OC)n(C)n1
146 to 148	Cc1ccc(N2CCN(c3c(C)c(C)c4c(c3C)CC(C)(C)O4)CC2)cc1Cl
102 to 103	CCCCNC(=S)N1CCC(c2nc(-c3ccc(-c4ccccc4)cc3)c[nH]2)CC1
116 to 117	CC(C(=O)O)c1cccc(Sc2ccccc2F)c1O (centres undefined)
127 to 128	CCOC(=O)/C(CCO[N+](=O)[O-])=C(\c1ccc(Cl)cc1)c1ccc(S(C)(=O)=O)cc1
259 to 260	C=CCc1c(C)nc(C)nc1NCc1ccc(-c2ccccc2-c2nnn[nH]2)cc1
77 to 78	CC(CCCCCCCCCCCCC(=O)O)CC(=O)O (centres undefined)
163 to 165	CCOc1cc2ncc(C#N)c(NCc3ccc(Cl)c(Cl)c3)c2cc1OCC
108 to 109	CCCCCCCCCCSc1ccc(C(=O)O)cc1
227	O=C(CS(=O)Cc1ccc([N+](=O)[O-])cc1)NO (centres undefined)
71 to 73	N#CCc1ccc(C2=CCCCC2)cc1
182 to 183	COc1cc(Nc2c(C#N)cnc3cc(-c4ccc(CN5CCOCC5)o4)ccc23)c(Cl)cc1Cl
152 to 154	CC(C)CC1(CCCCN2CCN(c3cccc4c3OCCO4)CC2)C(=O)Nc2ccccc21 (centres undefined)
95 to 96	CN(C)CCCCOc1ccc2c(=O)cc(-c3ccccc3)oc2c1
178 to 180	CCC(OC(C)=O)c1ccc(Cl)c2nc3n(c12)CCCN3c1ccc(OC)cc1Cl (centres undefined)
282 to 284	O=c1c2c(Cc3cccs3)n[nH]c2c2cccnc2n1-c1ccccc1
116 to 117	O=C(NC1CC1)C(O)=CC(=O)c1ccc(Cc2ccc(F)cc2)o1
201	COC(=O)C1=C(O)c2cc(Cl)ccc2S(=O)(=O)N1C
117	OC(CCl)(Cc1c(Cl)cccc1Cl)c1ccc(Cl)cc1Cl (centres undefined)

melting point [°C]	SMILES
64 to 66	O=C(Cc1ccc(F)cc1)N1C(=O)OC[C@@H]1Cc1ccccc1
154	O=C(CBr)c1ccc(Cl)c(S(=O)(=O)Nc2ccccc2)c1
110	Cc1cccc(C)c1NC(=O)CN1CCN(CC(O)CC(c2ccc(F)cc2)c2ccc(F)cc2)C(C(N)=O)C1 (centres undefined)
113 to 115	CCC1CN(c2c(F)cc3c(=O)c(C(=O)O)cn(C4CC4F)c3c2OC)CC1(C)N (centres undefined)
79 to 80	C=CCOc1cccc2oc(C=CC(=O)OCC)c(C)c12
144 to 145	CC(C)(C)OC(=O)N(C(=N)N)C(=O)OC(C)(C)C
152 to 153	CC(=S)NCC1CC(c2ccc(-n3cccc3)c(F)c2)=NO1 (single isomer, unassigned; (-))
61 to 62	COC(=O)[C@]1(F)[C@H]2[C@H](O)CC(=O)[C@H]21
> 250	Cn1ccnc1-c1ccc(C(=O)CN=[N+]=[N-])cc1
168	O=C(Nc1cccc2c1C(=O)N(CCN1CCN(c3ccncc3)CC1)C2=O)c1ccc(Cl)s1
65 to 70	CC(C)(C)c1cc(CC2SCNC2=O)ccc1O (centres undefined)
153 to 158	COc1ccc(C=C2NC(=O)NC2=O)cc1OC
35.2 to 36.7	CC(C)c1ccc(S(=O)(=O)O)cc1
141	Fc1ccccc1COc1cccnc1NC(=S)Nc1ccc(Cl)cc1
58 to 60	COc1cccc(COCc2cccc(OC)c2OC)c1OC
146 to 148	CN(c1ccccc1)S(=O)(=O)c1ccc(C=CC(C)(O)C(F)(F)F)cc1 (centres undefined)
192 to 195	CC(C)(C)C(=O)Oc1ccc(S(=O)(=O)c2ccc(S(N)(=O)=O)s2)cc1
302 to 304	CCn1cc(C(=O)O)c(=O)c2cc(F)c(N3CCC(CNC(C)C)C3)nc21 (centres undefined)
133 to 134	CC=CCn1c(C)c(C)c2cnnc(OCc3ccc(Cl)cc3Cl)c21
126 to 128	Cc1nc(-c2ccc(C#N)cc2)sc1C(=O)N[C@H](C)[C@](O)(Cn1ccnc1)c1ccc(F)cc1F
78 to 79	COc1ccccc1N1CCC(CNC[C@H]2COc3ccccc3O2)CC1
219 to 220	CSC(=NC#N)N[C@@H]1c2cc(S(C)(=O)=O)ccc2OC(C)(C)[C@H]1O (relative stereo)
110	C=C(C(=O)O)c1ccc(Cl)cc1
94 to 95	CCOC(=O)CCC(=O)c1ccc(Cl)c(S(N)(=O)=O)c1

melting point [°C]	SMILES
236 to 238	CN(Cc1ccc(NC(=O)C2=Cc3cc(-c4cccc(C(F)(F)F)c4)ccc3S(=O)(=O)CC2)cc1)C1CCOCC1
276 to 277	COc1ccccc1Cc1n[nH]c2c1c(=O)n(-c1ccccc1)c1ncccc21
205 to 207	C[C@H]1COC(=O)N1c1nc(-c2ccc(C#N)cc2)cs1
167 to 169	CCCC12CCC(=O)C=C1c1c(cc(OC)c(Cl)c1Cl)C2=O (centres undefined)
127 to 128	Cc1c(-c2ccc(OC(F)(F)F)cc2)[nH]c2ccc(OCc3ccccc3)cc12
52 to 54	CN(CCC(O)c1ccc(Cl)cc1)Cc1ccccc1F (centres undefined)
129 to 130	CCS(=O)(=O)c1ncc(S(N)(=O)=O)s1
120 to 122	Cc1c(C2CCCCC2)nn(C)c1C1CCCCC1
68 to 69	CCOC(=O)C(C)(C)Oc1ccc(CCNC(=O)C(C)(C)Oc2cccc(OC)c2)cc1
129 to 130	CCOc1ccc(OCc2ccc(OCc3nc(-c4ccccc4)oc3C)cc2)cc1CCC(=O)O
244	O=C(NC(=O)c1c(F)cccc1Cl)Nc1cnc(Oc2ccc(Cl)c3c2CCCC3)c(Cl)c1
57 to 58	c1c[nH]c(-c2cnco2)c1
167 to 170	COCCNn1ncc2nc(C)ccc21
158 to 160	CN(C)c1ccc(CNc2ccc(C(F)(F)F)cc2[N+](=O)[O-])cc1
126 to 128	Cc1cccc(C(=O)NC(C)C)c1[N+](=O)[O-]
> 280	O=c1[nH]c2cc(Br)cc(Br)c2c(=O)n1Cc1ccccc1
123 to 124	CC(C)N1C(=O)c2cccc(Cl)c2N(C#N)S1(=O)=O
45 to 95	C=C(Sc1ccc(Br)cc1)S(=O)(=O)c1ccc(Cl)cc1
81 to 83	CCCCCCCCCCCCCCCCCCOc1cc(N(CC(=O)OC)CC(=O)OC)cc(S(=O)CC(=O)OC)c1 (centres undefined)
124 to 125	C[C@H](NC(=O)OCc1ccccc1)C(=O)N1CCC[C@H]1C(=O)O (Cbz-Ala-Pro-OH)
269 to 270	NC(=O)CCCCCOc1ccc(C#Cc2ccc(C(=O)O)cc2)cc1C12CC3CC(CC(C3)C1)C2
166 to 168	CCOC(=O)c1c(C)oc2cc(N(C(C)=O)S(C)(=O)=O)c(Oc3ccccc3)cc2c1=O
212 to 213	CC(=O)Nc1c(C(=O)c2ccccc2)[nH]c2cc(Cl)ccc12
151 to 153	O=c1nc(-c2cccc(CN3CCC(Cc4ccccc4)CC3)n2)sc2ccccc12

melting point [°C]	SMILES
153 to 155	Cc1cc(Oc2c(Cl)cc(C(F)(F)F)cc2Cl)n[nH]1
92 to 94	Nc1ccc(C(=O)c2ncco2)c(Cl)c1
119 to 122	CCc1nc2c(cnn2CC)c(NC2CCOCC2)c1CNC(=O)c1cccc(C(=O)NCc2cc(Cl)cc(-c3cccc(CN4CCNCC4)c3)c2)c1
> 300	N#Cc1ccc2c(c1)NC(=O)C2c1ncnc2c1cnn2C1CCCCC1 (centres undefined)
166 to 169	CCOc1ccc(Cc2cn(C3OC(COC(C)=O)C(OC(C)=O)C(OC(C)=O)C3OC(C)=O)c3cccc(Cl)c23)cc1 (centres undefined)
261 to 265	CCCn1c(=O)c2[nH]c(-c3cc(C)n(CC(=O)Nc4ccc(C)c(C)c4)n3)nc2n(CCC)c1=O
154 to 160	CC(NC(=O)Cc1cc(F)cc(F)c1)C(=O)C1(N)N=C(N2CCCCC2)c2ccccc2N(C)C1=O (centres undefined)
247 to 249	O=c1nc(-c2ccccc2)c2ccsc2[nH]1
102 to 105	O=C(CCCC(=O)N1CCC[C@H]1C(=O)O)c1ccccc1
183 to 184	O=c1ccc(-c2ccco2)n[nH]1
87 to 89	Cc1noc(NS(=O)(=O)c2ccccc2F)c1Br
54 to 55	CCSc1ccc2c(c1)C(=O)Cc1ccccc1N2C
> 250	CC(=O)Nc1ccc(/C=C/C(=O)N2CC(CCl)c3c2cc(N)c2ccccc32)cc1 (centres undefined)
133 to 134	Cc1cc(CC(C)(C)CO)cc(C)c1O
144	CC(C)c1cc(-c2ccc(F)c3ccccc23)nc(N(S(C)(=O)=O)S(C)(=O)=O)n1
182	CN(C(=O)N1CCCC1)c1cccc2cc(-c3nccs3)[nH]c12
164	CC(C)(C)c1cc(Cn2nc(-c3ccccc3)oc2=O)cc(C(C)(C)C)c1O
178 to 180	Cc1ccc2c(c1)N(CC(=O)c1ccccc1C)C(=O)C(NC(=O)Nc1ccc(Cl)c(C(=O)O)c1)CN2C(=O)C(C)(C)C (centres undefined)
117	C=CCOc1ccc2c(C)c(F)c(=O)oc2c1C
56 to 57	Cc1ncc(C(=O)O)c(C2=NC(C)(C(C)C)C(=O)N2)n1 (centres undefined)
74.1	N[C@@H]1CCN(Cc2ccccc2)C[C@H]1O (relative stereo)
107 to 108	O=C(N[C@H]1CCN(CCc2ccc(F)cc2)C1)n1c2ccccc2c2ccccc21

SMILES	melting point [°C]
CNC(=O)N1N=C(c2ccc(N)cc2)c2ccc(Cl)cc2CC1C (centres undefined)	134 to 136
O=c1[nH]c2ccc(Cl)cc2n1C1CCNCC1	> 300
CCCCC(C(=O)N[C@H]1CN2CCC1CC2)c1ccccc1 (some centres undefined)	136
Cc1c(C2=CCC(c3ccccc3)(N(C)C)CC2)[nH]c2ccccc12 (centres undefined)	168 to 180
OC(CCN1CC=C(c2ccc(Cl)cc2)CC1)c1cccc2ccccc12 (centres undefined)	122 to 123
